Activity calls are given as the source filed them. No cut-off for these calls is given here.
Columns and labels:
A549 [1] = assay: Induction of apoptosis in human A549 cells assessed as downregulation of Cdk4 level incubated for 12 hrs by Western blot analysis; format: functional, cell-based; conditions: dose 1.25-5 µM, DDE = dose-dependent effect
A549 [2] = assay: Antiproliferative activity against human A549 cells expressing Hsp90-Cdc37 protein assessed as inhibition of cell growth incubated for 48 hrs by MTT assay; format: functional, cell-based; conditions: A549, 48 h
A549 [3] = assay: Antiproliferative activity against human A549 cells expressing Hsp90 protein assessed as inhibition of cell growth incubated for 48 hrs by MTT assay; format: functional, cell-based; conditions: A549, 48 h
A549 [4] = assay: Inhibition of Hsp90-Cdc37 complex in human A549 cells assessed as decrease in Hsp90-Cdc37 protein level at 10 uM incubated for 6 hrs by co-immunoprecipitation assay relative to CEL; format: cell-based
MDA-MB-231 = assay: Antiproliferative activity against human MDA-MB-231 cells assessed as inhibition of cell growth incubated for 48 hrs by MTT assay; format: functional, cell-based; conditions: MDA-MB-231, 48 h
A549 [5] = assay: Induction of apoptosis in human A549 cells assessed as total apoptotic cells at 0.4 uM incubated for 48 hrs Annexin V-FITC/propidium iodide staining based flow cytometry relative to control; format: functional
A549 [6] = assay: Induction of apoptosis in human A549 cells assessed as total apoptotic cells at 0.8 uM incubated for 48 hrs Annexin V-FITC/propidium iodide staining based flow cytometry relative to control; format: functional
A549 [7] = assay: Antitumor activity against human A549 cells xenografted in BALB/c mouse lung tumor model assessed as tumor inhibition rate at 0.5 mg/kg, ip measured every day for 21 days by caliper method relative to control; format: functional; conditions: A549, 504 h, time 21 day
A549 [8] = assay: Induction of cell cycle arrest in human A549 cells assessed as accumulation of cells at G0/G1 phase measured after 24 hrs by PI staining based flow cytometry analysis; format: functional; conditions: dose 0.1-0.4 µM, DDE = dose-dependent effect
U2OS = assay: Antiproliferative activity against human U2OS cells assessed as inhibition of cell growth incubated for 48 hrs by MTT assay; format: functional, cell-based
[9] = Thiol reactivity of the compound with DTT by 1H-NMR analysis; format: physicochemical
A549 [10] = assay: Upregulation of cleaved capase-3 expression in human A549 cells at 1.25 to 5 uM incubated for 12 hrs by Western blot analysis; format: functional, cell-based; conditions: dose 1.25-5 µM
A549 [11] = assay: Induction of apoptosis in human A549 cells assessed as total apoptotic cells at 0.2 uM incubated for 48 hrs Annexin V-FITC/propidium iodide staining based flow cytometry relative to control; format: functional
A549 [12] = assay: Upregulation of Bax protein expression in human A549 cells at 1.25 to 5 uM incubated for 12 hrs by Western blot analysis; format: functional, cell-based; conditions: dose 1.25-5 µM
[13] = molecular target: Heat shock protein HSP90 (Homo sapiens) (UniProt P07900+P08238); assay: Binding affinity to Hsp90 (unknown origin) at 80 uM by UV-Vis spectrophotometric analysis; format: protein assay
[14] = Stability of the compound in PBS/MeOH buffer by HPLC analysis; format: physicochemical
A549 [15] = assay: Antitumor activity against human A549 cells xenografted in BALB/c mouse lung tumor model assessed as tumor weight at 1 mg/kg, ip measured every day for 21 days by caliper method; format: functional; conditions: time 21 day
A549 [16] = assay: Induction of apoptosis in human A549 cells assessed as downregulation of p-Akt level incubated for 12 hrs by Western blot analysis; format: functional, cell-based; conditions: dose 1.25-5 µM, DDE = dose-dependent effect
A549 [17] = assay: Antiproliferative activity against human A549 cells expressing Cdc37 protein assessed as inhibition of cell growth incubated for 48 hrs by MTT assay; format: functional, cell-based; conditions: A549, 48 h
HCT-116 = assay: Antiproliferative activity against human HCT-116 cells assessed as inhibition of cell growth incubated for 48 hrs by MTT assay; format: functional, cell-based; conditions: HCT-116, 48 h
A549 [18] = assay: Antiproliferative activity against human A549 cells assessed as inhibition of cell growth incubated for 48 hrs by MTT assay; format: functional, cell-based; conditions: A549, 48 h
A549 [19] = assay: Induction of apoptosis in human A549 cells at 0.1 to 0.4 uM incubated for 48 hrs by Hoechst33342 staining based fluorescence microscopic analysis; format: functional, cell-based; conditions: dose 0.1-0.4 µM
[20] = Toxicity in BALB/c mouse xenografted with human A549 cells assessed as reduction in body weight at 0.5 to 1 mg/kg, ip measured for 21 days; format: organism-based; conditions: in vivo, 504 h, dose 0.5-1 mg/kg, time 21 day
[21] = molecular target: T1, Hsp90 co-chaperone Cdc37 (Homo sapiens) (UniProt Q16543); assay: Binding affinity to Cdc37 (unknown origin) at 80 uM by UV-Vis spectrophotometric analysis
T1 sequence (whole entry): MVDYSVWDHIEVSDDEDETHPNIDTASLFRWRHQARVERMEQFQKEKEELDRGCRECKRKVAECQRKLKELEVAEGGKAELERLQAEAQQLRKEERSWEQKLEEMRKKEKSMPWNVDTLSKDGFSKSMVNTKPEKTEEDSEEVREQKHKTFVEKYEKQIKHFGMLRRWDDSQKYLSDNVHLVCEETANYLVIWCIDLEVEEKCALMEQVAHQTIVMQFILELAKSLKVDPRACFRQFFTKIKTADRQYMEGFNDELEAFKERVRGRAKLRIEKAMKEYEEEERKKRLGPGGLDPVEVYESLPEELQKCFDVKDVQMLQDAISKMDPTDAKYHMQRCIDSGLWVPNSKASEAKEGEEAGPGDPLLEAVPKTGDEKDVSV

A549 [22] = assay: Upregulation of cleaved PARP expression in human A549 cells at 1.25 to 5 uM incubated for 12 hrs by Western blot analysis; format: functional, cell-based; conditions: dose 1.25-5 µM
A549 [23] = assay: […] of Bcl-2 protein expression in human A549 cells at 1.25 to 5 uM incubated for 12 hrs by Western blot analysis; format: functional, cell-based; conditions: dose 1.25-5 µM
A549 [24] = assay: Antitumor activity against human A549 cells xenografted in BALB/c mouse lung tumor model assessed as tumor inhibition rate at 1 mg/kg, ip measured every day for 21 days by caliper method relative to control; format: functional; conditions: A549, 504 h, time 21 day

- IC50 (A549 [2]): > 100 µM
- IC50 (A549 [3]): > 100 µM
- IC50 (MDA-MB-231): 570 nM
- IC50 (U2OS): 570 nM
- Activity [9]: Active
- Activity [13]: Active
- Stability [14]: Stable
- IC50 (A549 [17]): > 100 µM
- IC50 (HCT-116): 590 nM
- IC50 (A549 [18]): 540 nM
- Activity [21]: Active
Structure (SMILES): CC1=C(O)C(=O)C=C2C1=CC=C1[C@@]2(C)CC[C@@]2(C)[C@@H]3C[C@](C)(C(=O)OCCCn4cc([N+](=O)[O-])nc4Cl)CC[C@]3(C)CC[C@]12C
- Activity (A549 [1]): Dde
- inhibition (A549 [4]): 33.3%
- Activity (A549 [5]): 11.7%
- Activity (A549 [6]): 29.9%
- inhibition in vivo at 0.5 mg/kg (A549 [7]): 54.1%
- Activity (A549 [8]): Dde
- Activity (A549 [10]): Active
- Activity (A549 [11]): 9%
- Activity (A549 [12]): Active
- Activity (A549 [15]): 0.46 g
- Activity (A549 [16]): Dde
- Activity (A549 [19]): Active
- Activity [20]: Non-Toxic
- Activity (A549 [22]): Active
- Activity (A549 [23]): Active
- inhibition in vivo at 1 mg/kg (A549 [24]): 68.3%

Source: ChEMBL document CHEMBL5154774, “Discovery of Novel Celastrol-Imidazole Derivatives with Anticancer Activity In Vitro and In Vivo” (J Med Chem, 2022)
